From PubChem BioAssay AID1963985 (Molecular Pharmacology Branch, DTP, NCI, 2024)
Each block holds one compound with its values, some of them ahead of it.

Tested on: 252836-082-R-J2-PDC tumor spheroids, viability
Assay: Anticancer human tumor 252836-082-R-J2-PDC patient-derived head and neck squamous cell carcinoma cell line growth inhibition [PI3K]
Settings: spheroids with HUVEC and MSC; for IC50: curve of first compound; for viability, T/C: stronger effect = lower value
Outline: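 Tumor cells were combined with HUVEC and MSCs into spheroids, then dosed with PI3K-inhibitor combinations over half-log ranges capped near clinical Cmax or 10 microM.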

[1] = second compound 0.00316 µM, first compound 0.0316 µM
[2] = second compound 0.00316 µM, first compound 0.1 µM
[3] = second compound 0.00316 µM, first compound 0.316 µM
[4] = second compound 0.00316 µM, first compound 1 µM
[5] = second compound 0.00316 µM, first compound 3.16 µM
[6] = second compound 0.00316 µM, first compound 10 µM
[7] = second compound 0.01 µM, first compound 0.0316 µM
[8] = second compound 0.01 µM, first compound 0.1 µM
[9] = second compound 0.01 µM, first compound 0.316 µM
[10] = second compound 0.01 µM, first compound 1 µM
[11] = second compound 0.01 µM, first compound 3.16 µM
[12] = second compound 0.01 µM, first compound 10 µM
[13] = second compound 0.0316 µM, first compound 0.0316 µM
[14] = second compound 0.0316 µM, first compound 0.1 µM
[15] = second compound 0.0316 µM, first compound 0.316 µM
[16] = second compound 0.0316 µM, first compound 1 µM
[17] = second compound 0.0316 µM, first compound 3.16 µM
[18] = second compound 0.0316 µM, first compound 10 µM
[19] = second compound 0.1 µM, first compound 0.0316 µM
[20] = second compound 0.1 µM, first compound 0.1 µM
[21] = second compound 0.1 µM, first compound 0.316 µM
[22] = second compound 0.1 µM, first compound 1 µM
[23] = second compound 0.1 µM, first compound 3.16 µM
[24] = second compound 0.1 µM, first compound 10 µM
[25] = second compound 0.316 µM, first compound 0.0316 µM
[26] = second compound 0.316 µM, first compound 0.1 µM
[27] = second compound 0.316 µM, first compound 0.316 µM
[28] = second compound 0.316 µM, first compound 1 µM
[29] = second compound 0.316 µM, first compound 3.16 µM
[30] = second compound 0.316 µM, first compound 10 µM
[31] = second compound 1 µM, first compound 0.0316 µM
[32] = second compound 1 µM, first compound 0.1 µM
[33] = second compound 1 µM, first compound 0.316 µM
[34] = second compound 1 µM, first compound 1 µM
[35] = second compound 1 µM, first compound 3.16 µM
[36] = second compound 1 µM, first compound 10 µM
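Note: spheroids exposed to agents for seven days before readout.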
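Throughout, for viability, T/C: percent of vehicle DMSO control viability so 100% = untreated growth.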

IC50 (second compound 0.00316 µM): 383 nM | IC50 (second compound 0.01 µM): 294 nM | IC50 (second compound 0.0316 µM): 328 nM | IC50 (second compound 0.1 µM): 160 nM | IC50 (second compound 0.316 µM): < 31.6 nM | IC50 (second compound 1 µM): < 31.6 nM
SMILES: Cn1ncc(Cl)c1-c1cc(C(=O)NC(CN)Cc2cccc(F)c2)sc1Cl (centres undefined) + CC(Nc1ccc2c(c1)OCCn1cc(N3C(=O)OCC3C(F)F)nc1-2)C(N)=O
viability, T/C [1]: 82.5% | viability, T/C [2]: 67.8% | viability, T/C [3]: 47.6% | viability, T/C [4]: 39.8% | viability, T/C [5]: 29.7% | viability, T/C [6]: 9.51% | viability, T/C [7]: 80.8% | viability, T/C [8]: 62.8% | viability, T/C [9]: 50% | viability, T/C [10]: 33.6% | viability, T/C [11]: 26.7% | viability, T/C [12]: 12.8% | viability, T/C [13]: 74.2% | viability, T/C [14]: 61.8% | viability, T/C [15]: 48.8% | viability, T/C [16]: 39.3% | viability, T/C [17]: 26.6% | viability, T/C [18]: 11.5% | viability, T/C [19]: 66.9% | viability, T/C [20]: 53.3% | viability, T/C [21]: 45.8% | viability, T/C [22]: 26.9% | viability, T/C [23]: 24.7% | viability, T/C [24]: 8% | viability, T/C [25]: 45.5% | viability, T/C [26]: 43.3% | viability, T/C [27]: 34.3% | viability, T/C [28]: 25.6% | viability, T/C [29]: 22.4% | viability, T/C [30]: 14.1% | viability, T/C [31]: 40.9% | viability, T/C [32]: 36.8% | viability, T/C [33]: 30.3% | viability, T/C [34]: 24.8% | viability, T/C [35]: 23.7% | viability, T/C [36]: 10.5%

IC50 (second compound 0.00316 µM): > 10000 nM | IC50 (second compound 0.01 µM): > 10000 nM | IC50 (second compound 0.0316 µM): > 10000 nM | IC50 (second compound 0.1 µM): 5840 nM | IC50 (second compound 0.316 µM): 1070 nM | IC50 (second compound 1 µM): < 31.6 nM
SMILES: Cn1nccc1Nc1nccc(-c2ccn(C(CO)c3ccc(Cl)c(F)c3)c(=O)c2)n1 (centres undefined) + CC(Nc1ccc2c(c1)OCCn1cc(N3C(=O)OCC3C(F)F)nc1-2)C(N)=O
viability, T/C [1]: 80.8% | viability, T/C [2]: 90% | viability, T/C [3]: 92.5% | viability, T/C [4]: 85.4% | viability, T/C [5]: 72.5% | viability, T/C [6]: 61.9% | viability, T/C [7]: 85.5% | viability, T/C [8]: 78.7% | viability, T/C [9]: 81% | viability, T/C [10]: 89.7% | viability, T/C [11]: 82.5% | viability, T/C [12]: 58.1% | viability, T/C [13]: 69.4% | viability, T/C [14]: 74.2% | viability, T/C [15]: 69.8% | viability, T/C [16]: 75.8% | viability, T/C [17]: 83.8% | viability, T/C [18]: 44.6% | viability, T/C [19]: 70.4% | viability, T/C [20]: 58% | viability, T/C [21]: 64.1% | viability, T/C [22]: 64.6% | viability, T/C [23]: 60.9% | viability, T/C [24]: 40.4% | viability, T/C [25]: 49.5% | viability, T/C [26]: 50.3% | viability, T/C [27]: 55.5% | viability, T/C [28]: 50.1% | viability, T/C [29]: 40.7% | viability, T/C [30]: 28.6% | viability, T/C [31]: 39.1% | viability, T/C [32]: 43% | viability, T/C [33]: 38.7% | viability, T/C [34]: 38.6% | viability, T/C [35]: 31.9% | viability, T/C [36]: 22.6%
